Read-outs that look alike come from different tables or passages of the source.
Tests used:
5HT2B receptors = target: T1, 5HT2B receptors (Homo sapiens, UniProt P41595); test: Human 5-HT2B functional high throughput screening assay in CHO-K1 cells (calcium flux); format: cell-based; conditions: for EC50: CHO-K1 cells, calcium flux
T1 construct: expressed in transfected cells; host or cells: CHO-K1 cells
How it was run: (§1)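 Serum-starved CHO-K1 cells carrying the receptor; Ca4 dye, 60 min RT. Test compound added after a 10 s baseline, fluorescence followed for 3 min. EC50 from 4-parameter fit; Emax given as % of serotonin effect.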

5HT2C receptors = target: T2, 5HT2C receptors (Homo sapiens, UniProt P28335); test: Human 5-HT2C functional high throughput screening assay in CHO-K1 cells (calcium flux); format: cell-based; parameters: expressed in transfected cells; host or cells: CHO-K1 cells; conditions: for EC50: CHO-K1 cells, calcium flux; for Emax: 5-HT2C, maximum functional response as percentage relative to the effect of serotonin
T2 sequence (P28335 33-458): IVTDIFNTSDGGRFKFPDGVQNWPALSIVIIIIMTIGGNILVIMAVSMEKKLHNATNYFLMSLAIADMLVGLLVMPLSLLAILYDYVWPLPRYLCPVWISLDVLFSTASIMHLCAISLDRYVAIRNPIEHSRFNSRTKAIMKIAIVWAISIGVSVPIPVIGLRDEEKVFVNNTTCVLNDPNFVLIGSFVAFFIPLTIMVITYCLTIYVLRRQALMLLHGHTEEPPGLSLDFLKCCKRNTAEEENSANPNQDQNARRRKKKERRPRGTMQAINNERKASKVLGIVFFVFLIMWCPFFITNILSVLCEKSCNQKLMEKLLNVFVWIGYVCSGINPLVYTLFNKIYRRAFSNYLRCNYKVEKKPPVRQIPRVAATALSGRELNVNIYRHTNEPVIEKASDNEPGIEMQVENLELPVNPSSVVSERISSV
How it was run: as §1

[1] = 5-HT2B agonist activity, read-out: EC50
[2] = 5-HT2C agonist activity, read-out: EC50
[3] = 5-HT2B, maximum functional response as percentage relative to the effect of serotonin

T1 sequence (P41595 whole entry): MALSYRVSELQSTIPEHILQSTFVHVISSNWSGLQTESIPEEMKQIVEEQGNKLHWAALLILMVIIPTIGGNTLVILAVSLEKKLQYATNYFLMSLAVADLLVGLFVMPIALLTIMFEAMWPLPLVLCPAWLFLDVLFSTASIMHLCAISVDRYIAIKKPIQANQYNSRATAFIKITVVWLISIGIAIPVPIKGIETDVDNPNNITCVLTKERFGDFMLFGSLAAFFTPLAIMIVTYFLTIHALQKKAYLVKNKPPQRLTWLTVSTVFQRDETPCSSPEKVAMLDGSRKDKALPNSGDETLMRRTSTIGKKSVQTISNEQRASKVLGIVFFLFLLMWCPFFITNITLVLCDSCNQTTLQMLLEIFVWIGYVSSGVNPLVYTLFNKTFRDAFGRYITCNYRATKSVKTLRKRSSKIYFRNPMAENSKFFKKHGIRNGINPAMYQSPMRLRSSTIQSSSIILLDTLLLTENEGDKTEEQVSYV

| EC50 (5HT2B receptors; [1]) | EC50 (5HT2C receptors; [2]) | Emax (5HT2C receptors; CHO-K1, read-out: Emax) | Emax (5HT2B receptors; [3]) | SMILES | Emax (5HT2B receptors; CHO-K1) | EC50 (5HT2B receptors; EC50, 5-HT2B agonist activity) | Emax (5HT2C receptors; CHO-K1) | EC50 (5HT2C receptors; EC50, 5-HT2C agonist activity) | further results |
| --- | --- | --- | --- | --- | --- | --- | --- | --- | --- |
| 0.3 µM | 0.06 µM | 90% | – | Cc1c(Cl)cccc1S(=O)(=O)N1Cc2cccnc2[C@@H]2CNC[C@H]2C1 (relative stereo) [Example 342, Trans-6-[(3-chloro-2-methylphenyl)sulfonyl]-5,6,7,7a,8,9,10,10a-octahydropyrido[3,2-c]pyrrolo[3,4-e]azepine] | – | – | – | – | Emax (5HT2B receptors; CHO-K1, 5-HT2B, maximum functional response as percentage relative to the effect of serotonin, read-out: Emax): 40% |
| > 10 µM | 0.1 µM | > 120% | inactive | COc1ccccc1-c1ccc2c(c1)C(=O)NC[C@@H]1CN(C)C[C@@H]21 (relative stereo) [Example 137, Trans-8-(2-methoxyphenyl)-2-methyl-1,2,3,3a,4,5-hexahydrobenzo[e]pyrrolo[3,4-c]azepin-6(10bH)-one] | – | – | – | – | – |
| – | – | – | – | CN1C[C@@H]2CNC(=O)c3c(OC(F)(F)F)cccc3[C@H]2C1 [Example 113, (3aS,10bS)-2-Methyl-7-(trifluoromethoxy)-1,2,3,3a,4,5-hexahydrobenzo[c]pyrrolo[3,4-e]azepin-6(10bH)-one] | 20% | 2 µM | 120% | 0.005 µM | – |
| > 10 µM | 0.0008 µM | > 120% | inactive | COc1cccc(-c2ccc3c(c2)C(=O)NC[C@H]2CN(C)C[C@H]32)c1 [Example 160, (3aS,10bS)-8-(3-Methoxyphenyl)-2-methyl-1,2,3,3a,4,5-hexahydrobenzo[e]pyrrolo[3,4-c]azepin-6(10bH)-one] | – | – | – | – | – |
| – | – | – | – | c1ccc2c(c1)OCC[C@@H]1CNC[C@@H]21 [Example 271, (3aS,10bR)-2,3,3a,4,5,10b-Hexahydro-1H-[1]benzoxepino[4,5-c]pyrrole] | 30% | 5 µM | 120% | 0.4 µM | – |
| – | – | – | – | CN1C[C@@H]2CCOc3ccc(Cl)cc3[C@H]2C1 [Example 234, (3aR,10bS)-9-Chloro-2-methyl-2,3,3a,4,5,10b-hexahydro-1H-[1]benzoxepino[4,5-c]pyrrole] | 70% | 0.01 µM | > 120% | 0.01 µM | – |
| > 10 µM | 0.008 µM | 120% | inactive | CN1C[C@H]2CN(C)C(=O)c3cc(-c4cccc(CCO)c4)ccc3[C@@H]2C1 (relative stereo) [Example 192, Trans-8-(3-(2-hydroxyethyl)phenyl)-2,5-dimethyl-1,2,3,3a,4,5-hexahydrobenzo[e]pyrrolo[3,4-c]azepin-6(10bH)-one] | – | – | – | – | – |
| > 10 µM | 0.03 µM | 105% | inactive | COc1ccc(C(C)C)cc1-c1ccc2c(c1)C(=O)NC[C@@H]1CN(C)C[C@@H]21 (relative stereo) [Example 301, Trans-8-(5-isopropyl-2-methoxyphenyl)-2-methyl-2,3,3a,4,5,10b-hexahydropyrrolo[3,4-d][2]benzazepin-6(1H)-one] | – | – | – | – | – |
| > 10 µM | 0.0003 µM | > 120% | inactive | O=C1NC[C@@H]2CNC[C@H]2c2ccc(-c3ccsc3)cc21 (relative stereo) [Example 184, Trans-8-(thiophen-3-yl)-1,2,3,3a,4,5-hexahydrobenzo[e]pyrrolo[3,4-c]azepin-6(10bH)-one] | – | – | – | – | – |
| > 10 µM | 0.008 µM | 90% | inactive | CN1C[C@H]2CNC(=O)c3cc(-c4ccc5c(c4)C(=O)CCO5)ccc3[C@@H]2C1 (relative stereo) [Example 390, Trans-2-methyl-8-(4-oxo-3,4-dihydro-2H-chromen-6-yl)-2,3,3a,4,5,10b-hexahydropyrrolo[3,4-d][2]benzazepin-6(1H)-one] | – | – | – | – | – |
| – | – | – | – | COc1ccc2c(c1)OCC[C@H]1CNC[C@H]21 (relative stereo) [Example 280, Trans-8-methoxy-2,3,3a,4,5,10b-hexahydro-1H-[1]benzoxepino[4,5-c]pyrrole] | 60% | 0.1 µM | 100% | 0.09 µM | – |
| > 10 µM | 0.003 µM | > 120% | inactive | CC(=O)c1cccc(-c2ccc3c(c2)C(=O)N(C)C[C@@H]2CNC[C@@H]32)c1 (relative stereo) [Example 187, Trans-8-(3-acetylphenyl)-5-methyl-1,2,3,3a,4,5-hexahydrobenzo[e]pyrrolo[3,4-c]azepin-6(10bH)-one] | – | – | – | – | – |
| > 10 µM | 0.009 µM | 85% | inactive | COc1cc(F)ccc1-c1ccc2c(c1)C(=O)NC[C@H]1CN(C)C[C@H]21 [Example 326, (3aS,10bS)-8-(4-Fluoro-2-methoxyphenyl)-2-methyl-2,3,3a,4,5,10b-hexahydropyrrolo[3,4-d][2]benzazepin-6(1H)-one] | – | – | – | – | – |
| – | – | – | – | Fc1cccc2c1OCC[C@H]1CNC[C@H]21 (relative stereo) [Example 281, Trans-7-fluoro-2,3,3a,4,5,10b-hexahydro-1H-[1]benzoxepino[4,5-c]pyrrole] | 90% | 0.1 µM | 100% | 0.008 µM | – |
| – | – | – | – | Clc1cc(Br)c2c(c1)[C@@H]1CNC[C@@H]1CCO2 (relative stereo) [Example 393, Cis-7-bromo-9-chloro-2,3,3a,4,5,10b-hexahydro-1H-[1]benzoxepino[4,5-c]pyrrole] | 20% | 0.1 µM | 60% | 0.2 µM | – |
| – | – | – | – | Fc1cccc2c1[C@H]1CNC[C@@H]1CCO2 (relative stereo) [Example 287, Trans-10-fluoro-2,3,3a,4,5,10b-hexahydro-1H-[1]benzoxepino[4,5-c]pyrrole] | 40% | 0.3 µM | 95% | 0.05 µM | – |

| SMILES | EC50 (5HT2B receptors; [1]) | EC50 (5HT2C receptors; [2]) | Emax (5HT2C receptors; CHO-K1, read-out: Emax) | Emax (5HT2B receptors; [3]) | Emax (5HT2B receptors; CHO-K1) | EC50 (5HT2B receptors; EC50, 5-HT2B agonist activity) | Emax (5HT2C receptors; CHO-K1) | EC50 (5HT2C receptors; EC50, 5-HT2C agonist activity) | further results |
| --- | --- | --- | --- | --- | --- | --- | --- | --- | --- |
| COc1ccc(-c2ccc3c(c2)C(=O)NC[C@H]2CN(C)C[C@H]32)cn1 [Example 318, (3aS,10bS)-8-(6-Methoxypyridin-3-yl)-2-methyl-2,3,3a,4,5,10b-hexahydropyrrolo[3,4-d][2]benzazepin-6(1H)-one] | – | – | – | inactive | – | > 10 µM | 90% | 0.01 µM | – |
| COc1ncc(-c2ccc3c(c2)C(=O)NC[C@@H]2CNC[C@@H]32)cn1 (relative stereo) [Example 178, Trans-8-(2-methoxypyrimidin-5-yl)-1,2,3,3a,4,5-hexahydrobenzo[e]pyrrolo[3,4-c]azepin-6(10bH)-one] | – | – | – | inactive | – | > 10 µM | > 120% | 0.07 µM | – |
| Cc1noc(C)c1-c1ccc2c(c1)C(=O)NC[C@@H]1CNC[C@@H]21 (single isomer, unassigned) [Example 292, Trans-8-(3,5-dimethyl-1,2-oxazol-4-yl)-2,3,3a,4,5,10b-hexahydropyrrolo[3,4-d][2]benzazepin-6(1H)-one] | – | – | – | 15% | – | – | – | – | EC50 (5HT2B receptors; 5-HT2B agonist activity): 2 µM; EC50 (5HT2C receptors; 5-HT2C agonist activity): 0.05 µM; Emax (5HT2C receptors): 100% |
| CN1C[C@H]2CNC(=O)c3cc(OCc4ccccc4)ccc3[C@@H]2C1 (relative stereo) [Example 216, Trans-8-(benzyloxy)-2-methyl-1,2,3,3a,4,5-hexahydrobenzo[c]pyrrolo[3,4-e]azepin-6(10bH)-one] | – | – | – | inactive | – | > 10 µM | > 120% | 0.002 µM | – |

— US8846951B2 (AbbVie Inc., priority 2009, dated 2014)
